Results published in the SangsterLogP compilation.
Values belong to the compound of their own block, whether it stands above or below them. Non-standard residues stand in square brackets, D forms with d. Residues, ends and D or L forms follow the SMILES beside them.

Assays:
[1] = method code SF-HPLC, from DOI: 10.1016/j.ejpb.2012.03.006, PMID: 22469554
[2] = method code SF-AS, from DOI: 10.1016/j.ejmech.2010.07.027, PMID: 20705371
[3] = method code SF, from DOI: 10.1074/jbc.m009093200, PMID: 11092892; conditions: pH 7.4
[4] = method code SF-HPLC, from DOI: 10.1023/a:1016462801968, PMID: 3334410
[5] = method code SF, from DOI: 10.1021/jm4003632, PMID: 23662903; conditions: pH 7.4
[6] = not given; remark: listed apart in the source
[7] = method code SF-HPLC, from PMID: 4074422; conditions: pH 7.0
[8] = method code pH-metric titration, from DOI: 10.1002/(sici)1096-9063(199607)47:3<265::aid-ps416>3.0.co;2-f
[9] = not given; remark: listed apart in the source
[10] = method code SF-RC, from DOI: 10.1023/a:1015825912542, PMID: 1808606; conditions: pH 7.2
[11] = method code SF-AS, from DOI: 10.1002/chin.197711219; conditions: pH 7.4
[12] = method code SF, from DOI: 10.1021/jm5017544, PMID: 25671691; conditions: pH 7.4
[13] = not given; remark: listed apart in the source
[14] = method code SF-HPLC, from Bhosale, A.; Agrawal, G.; Mishra, P. (2004). Preparation and characterization of mutual prodrugs of ibuprofen. Indian Journal of Pharmaceutical Sciences, 66, 158-163.; conditions: pH 1.2
[15] = method code SF-AS, from DOI: 10.1016/j.bmcl.2014.05.029, PMID: 24930836
[16] = method code SF-AS, from DOI: 10.1016/0006-2952(93)90503-o, PMID: 8373444; conditions: pH 7.4
[17] = not given; remark: listed apart in the source
[18] = method code SF-GR, from DOI: 10.1016/s0022-3565(25)32611-x, PMID: 7230009
[19] = method code SF, from PMID: 21667; conditions: pH 10.1
[20] = not given; remark: listed apart in the source
[21] = method code SF-HPLC, from DOI: 10.1208/s12249-013-0046-y, PMID: 24297599; conditions: pH 4.0
[22] = not given; remark: listed apart in the source
[23] = method code SF-AS, from DOI: 10.1016/0147-6513(87)90041-8, PMID: 3830021
[24] = method code SF-AS, from DOI: 10.1007/bf02857814, PMID: 1608986
[25] = method code SF, from DOI: 10.1016/s0378-5173(97)00352-9
[26] = method code G-RC, from DOI: 10.1016/0300-483x(85)90031-9, PMID: 4049435
[27] = method code G-HPLC, from DOI: 10.1016/s0045-6535(97)00024-6
[28] = method code SF-RC, from DOI: 10.1002/jlcr.3404, PMID: 27126914; conditions: pH 7.4
[29] = method code SF-HPLC, from DOI: 10.1023/a:1007546905874, PMID: 11205732; conditions: pH 7.4
[30] = method code SF-AS, from DOI: 10.1016/j.ejmech.2015.02.036, PMID: 25728022; conditions: pH 7.4
[31] = not given; remark: listed apart in the source
[32] = method code SF-HPLC, from DOI: 10.1021/jf0483669, PMID: 15913295; conditions: pH 7.4
[33] = not given; remark: listed apart in the source
[34] = method code SF-RC, from DOI: 10.1021/jm300199g, PMID: 22540974; conditions: pH 7.4
[35] = method code SF-HPLC, from DOI: 10.1002/jps.2600830510, PMID: 8071813
[36] = method code SF-HPLC, from DOI: 10.1002/etc.5620170216
[37] = from Xu, W.; Sun, J.; Zhang, T.; Ma, B.; Chen, D.; He, Z. (2007). Determination of equilibrium solubility of oridonin and its apparent oil-water partition coefficient by HPLC. Journal of Shenyang …
[38] = not given; remark: listed apart in the source
[39] = method code SF-RC, from DOI: 10.1016/j.nucmedbio.2007.03.011, PMID: 17591556; conditions: pH 8.9
[40] = method code SF-RC, from DOI: 10.1002/jlcr.3310, PMID: 26094722; conditions: pH 7.4

Compound: CC(C)(C)C(=O)OCC(COC(=O)C(C)(C)C)OCn1cnc2c(=O)[nH]c(N)nc21
logP [4]: 1.71

Compound: CCCCCCN1C(=O)NC(c2ccccc2)(c2ccccc2)C1=O
logP [6]: 4.39

Compound: CCO/N=C(\CC)C1=C(O)CC(c2c(C)cc(C)cc2C)CC1=O (stereo unspecified)
logP [8]: 4.46

Compound: CC(=O)C1=C(O)C2C3c4c[nH]c5cccc(c45)CC3C(C)(C)N2C1=O (stereo unspecified)
logP [9]: 3.83

Compound: CC(=O)N[C@H](Cc1ccccc1)C(=O)N[C@H](Cc1ccccc1)C(N)=O (Ac-[dF]-[dF]-NH2)
logD [10]: 1.19

Compound: O=C1OC2(c3ccc(O)cc3Oc3cc(O)ccc32)c2ccccc21
logP [13]: 4.3

Compound: CC(C)Cc1ccc(C(C)C(=O)Oc2ccccc2C(N)=O)cc1 (stereo unspecified)
logD [14]: 1.54

Compound: Cc1cc(=O)oc2cc(OCC(O)Cn3cncn3)cc(OCC(O)Cn3cncn3)c12 (stereo unspecified)
logP [15]: 0.65

Compound: O=C1OC(c2ccc(O)c(S(=O)(=O)O)c2)(c2ccc(O)c(S(=O)(=O)O)c2)c2c(Br)c(Br)c(Br)c(Br)c21
logD [16]: -0.55

Compound: CC1C2CCC3C(O)C2(CC(O)C2(O)C1CC(O)C2(C)C)CC3(C)O (stereo unspecified)
logP [18]: 1.51

Compound: O=C(O)c1[nH]c2cc(Cl)cc(Cl)c2c1CN1CC(=O)N(c2cccc(OCCF)c2)C1=O
logP [20]: 2.16

Compound: CC[C@@]1(O)C(=O)OCc2c1cc1n(c2=O)Cc2cc3c(N)cccc3nc2-1
logD [21]: 1.26

Compound: CCCN(C(C)C)C1COc2cccc(C(=O)NC(C)C)c2C1 (stereo unspecified)
logP [22]: 3.27

Compound: C/C(=C(/OCCOc1ccc(Cl)cc1)c1ccc(Cl)cc1Cl)n1ccnc1
logP [25]: 5.76

Compound: c1ccc2c(c1)ccc1[nH]c3ccc4ccccc4c3c12
logP [26]: 5.55

Compound: c1ccc2nc3c4ccccc4c4ccccc4c3cc2c1
logP [27]: 5.66

Compound: O=C1OC(c2ccc(O)cc2)(c2ccc(O)cc2)c2ccccc21
logD [29]: 3.36

Compound: C=CCn1c(C)nc2cc(Nc3nc(N4CCOCC4)nc4[nH]cnc34)ccc21
logD [30]: 1.59

Compound: c1ccc2c(c1)-c1cccc3c1c-2cc1ccccc13
logP [31]: 6.06

Compound: O=C(OCCCN1CCOCC1)c1ccccc1Nc1c(Cl)cccc1Cl
logP [35]: 2.81

Compound: c1ccc2cc3c(cc2c1)-c1cccc2cccc-3c12
logP [36]: 6.11

Compound: c1ccc2c3c(ccc2c1)-c1cccc2cccc-3c12
logP [38]: 6.04

Compound: CN(C(=O)CF)c1cccc(-c2ccnc3c(C(=O)c4cccs4)cnn23)c1
logD [39]: 1.4

Compound: CC(C)(C)n1ncc(OCc2cccc(Cn3cc(CCF)nn3)c2)c(Cl)c1=O
logD [40]: 2.54

The remaining lines, values ahead:

logP [1]: 4.99
Compound: O=C(CCCCCCCC(=O)Oc1ccc(O)cc1)Oc1ccc(O)cc1

logP: 1.3
Compound: COc1cc2c(N)nc(N3CCN(C(=O)OCC(C)(C)O)CC3)nc2c(OC)c1OC

logP [2]: 2.03
Compound: CC(C)(C)c1cc(CN2CCOCC2)c(O)c(CN2CCOCC2)c1

logD [3]: 2.49
Compound: COC1=C(OC)C(=O)C(CCCCCCCCCCBr)=C(C)C1=O

logD [5]: 3.9
Compound: CC(C)n1ncnc1-c1nc2c(s1)CCOc1cc(-c3cnn(CCO)c3)ccc1-2

logD [7]: 2.76
Compound: O=C1CCc2cc(OCCCCc3nnnn3C3CCCCC3)ccc2N1

logD [11]: 2.01
Compound: O=C1C(=C2C=CN(CCN3CCOCC3)C=C2)C(=O)c2ccccc21

logD [12]: 2.05
Compound: CN(C)c1ccc(N=Nc2nc3ccc(OCCOCCOCCF)cc3s2)cc1

logP [17]: 3.8
Compound: CC[C@H]1C[C@]2(C)[C@@H](O)CC[C@H]2[C@@H]2CCc3cc(O)ccc3[C@@H]12

logD [19]: 1.6
Compound: COc1ccccc1N1CCN(CCCNc2cc(=O)n(C)c(=O)n2C)CC1

logP [23]: 4.1
Compound: COC(=O)CCN(CCC(=O)OC)c1ccc(/N=N/c2c(Cl)cc([N+](=O)[O-])cc2Br)cc1

logP [24]: 0.39
Compound: CCn1cc(C(=O)NC(CCCNC(=N)N)C(=O)OC)c(=O)c2ccc(C)nc21 (stereo unspecified)

logD [28]: 3.18
Compound: Cn1cc(C2=C(c3coc4ccccc34)C(=O)NC2=O)c2cc(I)ccc21

logD [32]: 0.97
Compound: O=c1c(-c2ccc(O)cc2)coc2cc(O[C@@H]3O[C@H](CO)[C@@H](O)[C@H](O)[C@H]3O)cc(O)c12

logP [33]: 3.6
Compound: O=C(CN1C(=O)c2ccccc2C1=O)N1CCN(Cc2ccc(I)cc2)CC1

logD [34]: 2.02
Compound: CC(C)[C@H](C(=O)NO)N(Cc1ccccc1)S(=O)(=O)c1ccc(OCCF)cc1

logP [37]: 1.66
Compound: C=C1C(=O)[C@]23C(O)C1CC[C@H]2[C@@]12CO[C@]3(O)C(O)[C@@H]1C(C)(C)CCC2O (stereo partly specified)
